Patent US6855710B2, “Substituted indolines with an inhibitory effect on various kinases and complexes of CDKs” (Boehringer Ingelheim Pharma KG, priority 1998, dated 2005)

melting point	SMILES
> 300 °C	O=C1Nc2ccc([N+](=O)[O-])cc2/C1=C(/Nc1ccc(N2CCOCC2)cc1)c1ccccc1 [Example 80, (Z)-3-[1-(4-morpholinophenylamino)-1-phenyl-methylidene]-5-nitro-2-indolinone]
318 to 320 °C (dec.)	CC(=O)Nc1cccc(N/C(=C2\C(=O)Nc3ccc([N+](=O)[O-])cc32)c2ccccc2)c1 [Example 89, (Z)-3-[1-(3-acetylamino-phenylamino)-1-phenyl-methylidene]-5-nitro-2-indolinone]
269 °C	Nc1ccc(N/C(=C2\C(=O)Nc3ccc([N+](=O)[O-])cc32)c2ccccc2)cc1 [Example 91, (Z)-3-[1-(4-aminophenylamino)-1-phenyl-methylidene]-5-nitro-2-indolinone]
355 to 356 °C (dec.)	O=CNc1ccc(N/C(=C2\C(=O)Nc3ccc([N+](=O)[O-])cc32)c2ccccc2)cc1 [Example 92, (Z)-3-[1-(4-formylamino-phenylamino)-1-phenyl-methylidene]-5-nitro-2-indolinone]
328 to 330 °C	CC(=O)Nc1ccc(N/C(=C2\C(=O)Nc3ccc([N+](=O)[O-])cc32)c2ccccc2)cc1 [Example 93, (Z)-3-[1-(4-acetylamino-phenylamino)-1-phenyl-methylidene]-5-nitro-2-indolinone]
254 to 257 °C	CN(C)CC(=O)Nc1ccc(N/C(=C2\C(=O)Nc3ccc([N+](=O)[O-])cc32)c2ccccc2)cc1 [Example 94, (Z)-3-[1-(4-dimethylaminomethylcarbonylamino-phenylamino)-1-phenyl-methylidene]-5-nitro-2-indolinone]
265 to 267 °C	O=C(CN1CCOCC1)Nc1ccc(N/C(=C2\C(=O)Nc3ccc([N+](=O)[O-])cc32)c2ccccc2)cc1 [Example 96, (Z)-3-[1-(4-morpholinomethylcarbonylamino-phenylamino)-1-phenyl-methylidene]-5-nitro-2-indolinone]
305 to 307 °C	CC(=O)N(C)c1ccc(N/C(=C2\C(=O)Nc3ccc([N+](=O)[O-])cc32)c2ccccc2)cc1 [Example 98, (Z)-3-{1-[4-(N-acetyl-N-methyl-amino)-phenylamino]-1-phenyl-methylidene}-5-nitro-2-indolinone]
293 to 295 °C	CN(C(=O)CN1CCOCC1)c1ccc(N/C(=C2\C(=O)Nc3ccc([N+](=O)[O-])cc32)c2ccccc2)cc1 [Example 102, (Z)-3-{1-[4-(N-morpholinomethylcarbonyl-N-methyl-amino)-phenylamino]-1-phenyl-methylidene}-5-nitro-2-indolinone]
201 to 203 °C	CN(C(=O)CN1CCN(Cc2ccccc2)CC1)c1ccc(N/C(=C2\C(=O)Nc3ccc([N+](=O)[O-])cc32)c2ccccc2)cc1 [Example 104, (Z)-3-{1-[4-(N-(4-benzylpiperazinomethylcarbonyl)-N-methyl-amino)-phenylamino]-1-phenyl-methylidene}-5-nitro-2-indolinone]
171 to 173 °C	CN(C)CC(=O)NCc1cccc(N/C(=C2\C(=O)Nc3ccc([N+](=O)[O-])cc32)c2ccccc2)c1 [Example 106, (Z)-3-[1-(3-dimethylaminomethylcarbonylaminomethyl-phenylamino)-1-phenyl-methylidene]-5-nitro-2-indolinone]
214 to 217 °C	CN(C)Cc1cccc(N/C(=C2\C(=O)Nc3ccc([N+](=O)[O-])cc32)c2ccccc2)c1 [Example 107, (Z)-3-[1-(3-dimethylaminomethyl-phenylamino)-1-phenyl-methylidene]-5-nitro-2-indolinone]

SMILES	melting point
CC(C)(C)OC(=O)Nc1ccc(N/C(=C2\C(=O)Nc3ccc([N+](=O)[O-])cc32)c2ccccc2)cc1 [Example 90, (Z)-3-[1-(4-tert.butoxycarbonylamino-phenylamino)-1-phenyl-methylidene]-5-nitro-2-indolinone]	235 to 237 °C (dec.)
